Reference: US20230414616A1, “LINE-1 INHIBITORS TO TREAT DISEASE” (Transposon Therapeutics, Inc., priority 2020, published 2023)

Tested on: human LINE-1
Assay: Human LINE-1 retrotransposition assay (HeLa cell-based dual-luciferase reporter)
Conditions: HeLa cells, reporter plasmid pYX017, 72 h incubation, Firefly/Renilla
Description: Representative Compounds of the Disclosure were tested for inhibition of retrotransposition activity of human LINE-1 in HeLa cells according to the following procedure.
HeLa cervical cancer cells were cultivated at 37° C. in a humidified 5% CO2 incubator in Dulbecco's Modified Eagle's Medium (DMEM)—high glucose, with 4500 mg/L glucose, L-glutamine, sodium pyruvate and sodium bicarbonate (Sigma), supplemented with 10% of heat inactivated fetal bovine serum (Thermo Fisher).
Assays were performed using reporter plasmid pYX017 as described (Xie, et al., 2011) with several modifications. The reporter assay was performed in 96-well white optical bottom plates. HeLa cells were seeded in wells 24 h prior to transfection and compound treatment so that cells were approximately 30% confluent on the day of transfection. Different cell plating densities were tested and a density of 2×10^3 cells was determined to be optimal.
Compounds were resuspended in DMSO. Serial dilutions (1:3) were prepared in DMSO. Medium containing different concentrations of the compounds were prepared by adding 2 μl of the compound dilution to 1 ml of the culture medium. The final concentration of DMSO in the medium was 0.2%.
FuGENE® HD transfection reagent (Promega, E2311, Lot 382574 and Lot 397842) was used to transfect the plasmids into the cells. […] Different ratios of transfection reagent to DNA were tested and a ratio of 3:1 was determined to be optimal. […] A 72 h incubation time was determined to be optimal.
Luciferase reporter activity was quantified with the Dual-Luciferase® Reporter Assay System (Promega) according to manufacturer's instructions for multiwell plates except that cells were lysed directly on the multiwell plate with 30 μl of the passive lysis buffer (PLB) for 20 min at room temperature, with gentle shaking to ensure complete cell lysis.
Firefly and Renilla luciferase signals were measured using a SpectraMax i3x Multi-Mode Microplate Reader. […] Relative L1 activity is calculated as Firefly/Renilla *1000 or Firefly/Renilla *10,000. […]

Structure (SMILES): C#C[C@]1(CO)O[C@@H](n2cc(F)c(=O)[nH]c2=O)C[C@@H]1O [Compound 15]
- IC50 (HeLa, 72 h): 830 nM

Structure (SMILES): CC[C@]1(CO)O[C@@H](n2cnc3c(O)nc(N)nc32)C[C@@H]1O [Compound 27]
- IC50 (HeLa, 72 h): 2.6 nM

Structure (SMILES): CC(C)OC(=O)[C@H](C)N[P@](=O)(CO[C@H](C)Cn1cnc2c(N)ncnc21)Oc1ccccc1 [tenofovir alafenamide, reference compound]
- IC50: 10 nM
